From US20240067693A1, “POLYPEPTIDES AND USES THEREOF” (MEDIMMUNE LIMITED, priority 2020, published 2024)
Numbered stars: 1 amine (or outer) side, 2 acyl side, 3 side chain; on linkers, the order of the positions; unused ones are H or OH. Bridge positions count the residues as written; N and C are the ends. Square brackets hold non-standard residues; d marks the D form. Side chains are listed from the residue outwards. Peptide text beside a SMILES is read from it. * marks the point of attachment. C18 diacid = O=C(O)CCCCCCCCCCCCCCCCC(=O)*; γGlu = O=C(O)[C@H](CCC(=O)[*:2])N[*:1]; αMeF = C[C@](N)(Cc1ccccc1)C(=O)O; Aib = CC(C)(N)C(=O)O

Assays:
[1] = target: T1, human amylin receptor (calcitonin receptor co-expressed with receptor activity modifying protein, RAMP3) (hAMYR3) (Homo sapiens, UniProt O60896+P30988); test: cAMP production in 1321N1 cells with stable recombinant expression of human amylin receptor (hAMYR3); assay type: cell-based; conditions: for Ratio (selectivity hAMYR vs hCTR, ratio of EC50 values at the two receptors): EC50 hCTR / EC50 hAMYR3; for EC50: cAMP, 1321N1 cells, assay buffer with 0.1% BSA, read-out: EC50 (pM) hAMYR3
T1 construct: expressed in transfected cells
T1 sequence (P30988 25-474): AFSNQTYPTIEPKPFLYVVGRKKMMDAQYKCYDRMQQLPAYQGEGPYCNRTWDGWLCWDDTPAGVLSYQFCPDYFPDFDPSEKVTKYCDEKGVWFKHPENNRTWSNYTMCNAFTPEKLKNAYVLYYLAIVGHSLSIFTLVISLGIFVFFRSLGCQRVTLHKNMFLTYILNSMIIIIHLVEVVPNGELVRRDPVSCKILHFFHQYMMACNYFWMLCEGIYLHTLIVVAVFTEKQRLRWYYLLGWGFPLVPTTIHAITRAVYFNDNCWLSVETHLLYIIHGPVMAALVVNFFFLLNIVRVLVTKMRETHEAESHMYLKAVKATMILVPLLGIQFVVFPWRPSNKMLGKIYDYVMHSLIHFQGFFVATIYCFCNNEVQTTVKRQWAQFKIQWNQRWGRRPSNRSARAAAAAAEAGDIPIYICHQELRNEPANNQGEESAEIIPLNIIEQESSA
T1 sequence (O60896 24-148 partner): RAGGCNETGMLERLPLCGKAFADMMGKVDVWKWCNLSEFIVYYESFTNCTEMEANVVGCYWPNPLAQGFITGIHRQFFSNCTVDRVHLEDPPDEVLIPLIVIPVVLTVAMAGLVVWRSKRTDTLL
In short: (§1)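 Thawed cells in HBSS/0.1% BSA/25 mM HEPES pH 7.4 with 0.5 mM IBMX were incubated with peptides 30 min at room temperature; cAMP read by HTRF. EC50 from 4-parameter fit of % activation relative to maximal amylin or calcitonin effect.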

[2] = target: T2, human calcitonin receptor (hCTR) (Homo sapiens, UniProt P30988); test: cAMP production in 1321N1 cells with stable recombinant expression of human calcitonin receptor (hCTR); assay type: cell-based; conditions: cAMP, 1321N1 cells, assay buffer with 0.1% BSA; read-out: EC50 (pM) hCTR
T2 construct: expressed in transfected cells
T2 sequence (P30988 25-474): T1 sequence (P30988 25-474)
In short: as §1

[3] = Thioflavin T fibrillation assay; assay type: physicochemical; conditions: ThT fibrillation assay; peptide 1 mg/mL in 25 mM sodium acetate buffer pH 4.0; 6 days at 37 °C with shaking; >144 h = no increase
In short: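 Peptides at 1 mg/mL in 25 mM sodium acetate pH 4.0 with ThT (from 0.25 mM stock), incubated 6 days at 37 °C with intermittent orbital shaking at 500–750 rpm. Fluorescence (ex 444/em 480 nm) read every 30 min; value is average time to a rise in baseline-corrected signal.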

[4] = Pharmacokinetic determination via IV and SC administration in Sprague Dawley rats; conditions: male, rat, plasma, 20 nmol/kg

Compound | Ratio (selectivity hAMYR vs hCTR, ratio of EC50 values at the two receptors) [1] | EC50 [1] | EC50 [2] | Time taken to detect increase in fluorescence intensity [3] | half-life ([4]; iv) | half-life ([4]; sc)
CC[C@H](C)[C@H](NC(=O)[C@@H]1CCCN1C(=O)CNC(=O)[C@](C)(Cc1ccccc1)NC(=O)[C@H](CC(N)=O)NC(=O)[C@H](CC(N)=O)NC(=O)[C@H](CO)NC(=O)[C@H](CO)NC(=O)[C@H](Cc1c[nH]cn1)NC(=O)[C@H](CCCNC(=N)N)NC(=O)[C@H](CC(C)C)NC(=O)[C@H](Cc1ccccc1)NC(=O)[C@H](CC(N)=O)NC(=O)[C@H](C)NC(=O)[C@H](CC(C)C)NC(=O)[C@H](CCCNC(=N)N)NC(=O)[C@H](CCC(N)=O)NC(=O)[C@@H](NC(=O)[C@H](C)NC(=O)[C@@H]1CSSC[C@H](NC(=O)[C@@H](N)CCCCNC(=O)CC[C@H](NC(=O)CCCCCCCCCCCCCCCCC(=O)O)C(=O)O)C(=O)N[C@@H](CC(N)=O)C(=O)N[C@@H]([C@@H](C)O)C(=O)N[C@@H](C)C(=O)N[C@@H]([C@@H](C)O)C(=O)N1)[C@@H](C)O)C(=O)N[C@@H](CC(C)C)C(=O)N1CCC[C@H]1C(=O)N1CCC[C@H]1C(=O)N[C@H](C(=O)N[C@@H](CC(N)=O)C(=O)N[C@H](C(=O)NCC(=O)N[C@@H](CO)C(=O)N[C@@H](CC(N)=O)C(=O)N[C@H](C(=O)N[C@@H](Cc1ccc(O)cc1)C(N)=O)[C@@H](C)O)C(C)C)[C@@H](C)O [Peptide 19, K(γE-C18diacid)[CNTATC]ATQRLANFLRHSSNN(αMePhe)GPILPPTNVGSNTY-amide] (H-K([γGlu-C18 diacid])CNTATCATQRLANFLRHSSNN[αMeF]GPILPPTNVGSNTY-NH2; disulfide 2-7; N-terminus assumed) | 15 | 278 pM | 4040 pM | >144 h | 6.6 h | 9.3 h
CC[C@H](C)[C@H](NC(=O)[C@@H]1CCCN1C(=O)CNC(=O)[C@H](Cc1ccccc1)NC(=O)[C@H](CC(N)=O)NC(=O)C(C)(C)NC(=O)[C@H](CO)NC(=O)[C@H](CO)NC(=O)[C@H](Cc1c[nH]cn1)NC(=O)C(C)(C)NC(=O)[C@H](CC(C)C)NC(=O)[C@H](Cc1ccccc1)NC(=O)[C@H](CC(N)=O)NC(=O)[C@H](C)NC(=O)[C@H](CC(C)C)NC(=O)[C@H](CCCNC(=N)N)NC(=O)[C@H](CCC(N)=O)NC(=O)[C@@H](NC(=O)[C@H](C)NC(=O)[C@@H]1CSSC[C@H](NC(=O)[C@H](CCCCN)NC(=O)[C@@H](N)CCCCNC(=O)CC[C@H](NC(=O)CCCCCCCCCCCCCCCCC(=O)O)C(=O)O)C(=O)N[C@@H](CC(N)=O)C(=O)N[C@@H]([C@@H](C)O)C(=O)N[C@@H](C)C(=O)N[C@@H]([C@@H](C)O)C(=O)N1)[C@@H](C)O)C(=O)N[C@@H](CC(C)C)C(=O)N1CCC[C@H]1C(=O)N1CCC[C@H]1C(=O)N[C@H](C(=O)N[C@@H](CC(N)=O)C(=O)N[C@H](C(=O)NCC(=O)N[C@@H](CO)C(=O)N[C@@H](CC(N)=O)C(=O)N[C@H](C(=O)N[C@@H](Cc1ccc(O)cc1)C(N)=O)[C@@H](C)O)C(C)C)[C@@H](C)O [Peptide 36, K(γE-C18diacid)K[CNTATC]ATQRLANFL(Aib)HSS(Aib)NFGPILPPTNVGSNTY-amide] (H-K([γGlu-C18 diacid])KCNTATCATQRLANFL[Aib]HSS[Aib]NFGPILPPTNVGSNTY-NH2; disulfide 3-8; N-terminus assumed) | 19 | 331 pM | 6390 pM | – | 7.2 h | 11.6 h

Results, then the molecule that gave them:

Ratio (selectivity hAMYR vs hCTR, ratio of EC50 values at the two receptors) [1] | EC50 [1] | EC50 [2] | Time taken to detect increase in fluorescence intensity [3] | half-life ([4]; iv) | half-life ([4]; sc) | Compound
31 | 207 pM | 6400 pM | – | 6 h | 9.3 h | CC[C@H](C)[C@H](NC(=O)[C@@H]1CCCN1C(=O)CNC(=O)[C@H](Cc1ccccc1)NC(=O)[C@H](CC(N)=O)NC(=O)C(C)(C)NC(=O)[C@H](CO)NC(=O)[C@H](CO)NC(=O)[C@H](Cc1c[nH]cn1)NC(=O)[C@H](CCCNC(=N)N)NC(=O)[C@H](CC(C)C)NC(=O)[C@H](Cc1ccccc1)NC(=O)[C@H](CC(N)=O)NC(=O)[C@H](C)NC(=O)[C@H](CC(C)C)NC(=O)[C@H](CCCNC(=N)N)NC(=O)[C@H](CCC(N)=O)NC(=O)[C@@H](NC(=O)[C@H](C)NC(=O)[C@@H]1CSSC[C@H](NC(=O)[C@H](CCCCN)NC(=O)[C@@H](N)CCCCNC(=O)CC[C@H](NC(=O)CCCCCCCCCCCCCCCCC(=O)O)C(=O)O)C(=O)N[C@@H](CC(N)=O)C(=O)N[C@@H]([C@@H](C)O)C(=O)N[C@@H](C)C(=O)N[C@@H]([C@@H](C)O)C(=O)N1)[C@@H](C)O)C(=O)N[C@@H](CC(C)C)C(=O)N1CCC[C@H]1C(=O)N1CCC[C@H]1C(=O)N[C@H](C(=O)N[C@@H](CC(N)=O)C(=O)N[C@H](C(=O)NCC(=O)N[C@@H](CO)C(=O)N[C@@H](CC(N)=O)C(=O)N[C@H](C(=O)N[C@@H](Cc1ccc(O)cc1)C(N)=O)[C@@H](C)O)C(C)C)[C@@H](C)O [Peptide 65, K(γE-C18diacid)K[CNTATC]ATQRLANFLRHSS(Aib)NFGPILPPTNVGSNTY-amide] (H-K([γGlu-C18 diacid])KCNTATCATQRLANFLRHSS[Aib]NFGPILPPTNVGSNTY-NH2; disulfide 3-8)
17 | 418 pM | 7010 pM | >144 h | 9.4 h | 12.2 h | CC[C@H](C)[C@H](NC(=O)[C@@H]1CCCN1C(=O)CNC(=O)[C@H](Cc1ccccc1)NC(=O)[C@H](CC(N)=O)NC(=O)C(C)(C)NC(=O)[C@H](CO)NC(=O)[C@H](CO)NC(=O)[C@H](Cc1c[nH]cn1)NC(=O)[C@H](CCCNC(=N)N)NC(=O)[C@H](CC(C)C)NC(=O)[C@H](Cc1ccccc1)NC(=O)[C@H](CC(N)=O)NC(=O)[C@H](C)NC(=O)[C@H](CC(C)C)NC(=O)[C@H](CCCNC(=N)N)NC(=O)[C@H](CCC(N)=O)NC(=O)[C@@H](NC(=O)[C@H](C)NC(=O)[C@@H]1CSSC[C@H](NC(=O)[C@H](CCCCN)NC(=O)[C@@H](N)CCCCNC(=O)CC[C@H](NC(=O)CC[C@H](NC(=O)CCCCCCCCCCCCCCCCC(=O)O)C(=O)O)C(=O)O)C(=O)N[C@@H](CC(N)=O)C(=O)N[C@@H]([C@@H](C)O)C(=O)N[C@@H](C)C(=O)N[C@@H]([C@@H](C)O)C(=O)N1)[C@@H](C)O)C(=O)N[C@@H](CC(C)C)C(=O)N1CCC[C@H]1C(=O)N1CCC[C@H]1C(=O)N[C@H](C(=O)N[C@@H](CC(N)=O)C(=O)N[C@H](C(=O)NCC(=O)N[C@@H](CO)C(=O)N[C@@H](CC(N)=O)C(=O)N[C@H](C(=O)N[C@@H](Cc1ccc(O)cc1)C(N)=O)[C@@H](C)O)C(C)C)[C@@H](C)O [Peptide 66, K(γE-γE-C18diacid)K[CNTATC]ATQRLANFLRHSS(Aib)NFGPILPPTNVGSNTY-amide] (H-K([γGlu-γGlu-C18 diacid])KCNTATCATQRLANFLRHSS[Aib]NFGPILPPTNVGSNTY-NH2; disulfide 3-8)
11.9 | 329 pM | 3930 pM | – | 7.7 h | 8.9 h | CC[C@H](C)[C@H](NC(=O)[C@@H]1CCCN1C(=O)CNC(=O)[C@H](Cc1ccccc1)NC(=O)[C@H](CC(N)=O)NC(=O)[C@H](CC(N)=O)NC(=O)[C@H](CO)NC(=O)[C@H](CO)NC(=O)[C@H](Cc1c[nH]cn1)NC(=O)C(C)(C)NC(=O)[C@H](CC(C)C)NC(=O)[C@H](Cc1ccccc1)NC(=O)[C@H](CC(N)=O)NC(=O)[C@H](C)NC(=O)[C@H](CC(C)C)NC(=O)[C@H](CCCNC(=N)N)NC(=O)[C@H](CCC(N)=O)NC(=O)[C@@H](NC(=O)[C@H](C)NC(=O)[C@@H]1CSSC[C@H](NC(=O)[C@@H](N)CCCCNC(=O)CC[C@H](NC(=O)CCCCCCCCCCCCCCCCC(=O)O)C(=O)O)C(=O)N[C@@H](CC(N)=O)C(=O)N[C@@H]([C@@H](C)O)C(=O)N[C@@H](C)C(=O)N[C@@H]([C@@H](C)O)C(=O)N1)[C@@H](C)O)C(=O)N[C@@H](CC(C)C)C(=O)N1CCC[C@H]1C(=O)N1CCC[C@H]1C(=O)N[C@H](C(=O)N[C@@H](CCCNC(=N)N)C(=O)N[C@H](C(=O)NCC(=O)N[C@@H](CO)C(=O)N[C@@H](CC(N)=O)C(=O)N[C@H](C(=O)N[C@@H](Cc1ccc(O)cc1)C(N)=O)[C@@H](C)O)C(C)C)[C@@H](C)O [Peptide 155] (H-K([γGlu-C18 diacid])CNTATCATQRLANFL[Aib]HSSNNFGPILPPTRVGSNTY-NH2; disulfide 2-7; N-terminus assumed)
